Experimental data from US20190367516A1 (Bayer Pharma Aktiengesellschaft, priority 2015, published 2019).
Read-outs that look alike come from different tables or passages of the source.

Biological target: T1, human M2 receptor (Homo sapiens, UniProt P08172)
T1 sequence (P08172 1-466): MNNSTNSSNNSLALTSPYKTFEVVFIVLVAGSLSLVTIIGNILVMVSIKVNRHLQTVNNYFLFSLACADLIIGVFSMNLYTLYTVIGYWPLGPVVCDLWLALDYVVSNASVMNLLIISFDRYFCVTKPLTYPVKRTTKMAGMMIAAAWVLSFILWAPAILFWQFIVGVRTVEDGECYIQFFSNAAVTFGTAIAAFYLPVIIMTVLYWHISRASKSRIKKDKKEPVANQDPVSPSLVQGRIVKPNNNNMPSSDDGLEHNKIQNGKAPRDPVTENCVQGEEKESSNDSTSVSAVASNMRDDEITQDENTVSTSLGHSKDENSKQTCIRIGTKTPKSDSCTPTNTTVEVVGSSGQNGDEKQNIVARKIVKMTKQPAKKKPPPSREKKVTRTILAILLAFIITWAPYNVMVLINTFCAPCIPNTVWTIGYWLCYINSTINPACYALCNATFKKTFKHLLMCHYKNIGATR
Settings: for Emax: read-out: Efficiency, boosting of the acetylcholine effect at EC20 acetylcholine concentration

[1] = Receptor activity EC50, allosteric potency at EC20 acetylcholine, M2-GIRK1/4 reporter cells, in some cases mean of two or more determinations
[2] = Receptor activity EC50, M2-GIRK1/4 activation test, acetylcholine at EC20, allosteric potency, in some cases mean values from two or more determinations

Row | SMILES | EC50 [1] | Emax (M2-GIRK1/4 reporter cells) | EC50 [2]
1 | O=C(NC12CC3CC(CC(C3)C1)C2)c1cn(-c2ccc(F)cc2F)c2nc(N3CCNC3=O)ccc2c1=O [Example 186, 1-(2,4-Difluorophenyl)-4-oxo-7-(2-oxoimidazolidin-1-yl)-N-(tricyclo[3.3.1.1^3,7]dec-1-yl)-1,4-dihydro-1,8-naphthyridine-3-carboxamide] |  |  | 0.03 µM
2 | COCC(C)(NC(=O)c1cn(-c2ccc(F)cc2F)c2nc(N3C[C@@H](O)CC3=O)ccc2c1=O)C(F)(F)F (stereo partly drawn) [Example 236, 1-(2,4-Difluorophenyl)-7-[(4S)-4-hydroxy-2-oxopyrrolidin-1-yl]-4-oxo-N-[1,1,1-trifluoro-3-methoxy-2-methylpropan-2-yl]-1,4-dihydro-1,8-naphthyridine-3-carboxamide] |  |  | 0.86 µM
3 | O=C(NC(c1c(F)cccc1F)C(F)(F)F)c1cn(-c2ccc(F)cc2F)c2nc(N3CCCC(O)C3=O)ccc2c1=O (single isomer, unassigned) [Example 248, 1-(2,4-Difluorophenyl)-N-[1-(2,6-difluorophenyl)-2,2,2-trifluoroethyl]-7-[3-hydroxy-2-oxopiperidin-1-yl]-4-oxo-1,4-dihydro-1,8-naphthyridine-3-carboxamide] |  |  | 0.33 µM
4 | CN(C)c1ccc2c(=O)c(C(=O)NC3(C(F)(F)F)CCCC3)cn(-c3ccc(F)cc3F)c2n1 [Example 151, 1-(2,4-Difluorophenyl)-7-(dimethylamino)-4-oxo-N-[1-(trifluoromethyl)cyclopentyl]-1,4-dihydro-1,8-naphthyridine-3-carboxamide] |  |  | 0.023 µM
5 | CC(C)(CC(F)(F)F)NC(=O)c1cn(-c2c(F)cc(F)cc2Cl)c2nc(N3C[C@@H](O)[C@H](O)C3)ccc2c1=O (single isomer, unassigned) [Example 393] |  |  | 0.125 µM
6 | O=C(NC12CC3CC(CC(C3)C1)C2)c1cn(-c2ccc(F)cc2F)c2nc(N3CC[C@@H](F)C3)ccc2c1=O [Example 72, 1-(2,4-Difluorophenyl)-7-[(3R)-3-fluoropyrrolidin-1-yl]-4-oxo-N-(tricyclo[3.3.1.1^3,7]dec-1-yl)-1,4-dihydro-1,8-naphthyridine-3-carboxamide] |  |  | 0.053 µM
7 | CN(C)c1ccc2c(=O)c(C(=O)NC(Cc3ccccc3)C(F)(F)F)cn(-c3ccc(F)cc3F)c2n1 (racemic) [Example 143, rac-1-(2,4-Difluorophenyl)-7-(dimethylamino)-4-oxo-N-(1,1,1-trifluoro-3-phenylpropan-2-yl)-1,4-dihydro-1,8-naphthyridine-3-carboxamide] |  |  | 0.037 µM
8 | CN(C)c1ccc2c(=O)c(C(=O)Nc3c(Cl)cccc3Cl)cn(-c3ccc(F)cc3F)c2n1 [Example 55, N-(2,6-Dichlorophenyl)-1-(2,4-difluorophenyl)-7-(dimethylamino)-4-oxo-1,4-dihydro-1,8-naphthyridine-3-carboxamide] |  |  | 0.036 µM
9 | O=C(N[C@@H](C1CC1)C(F)(F)F)c1cn(-c2c(F)cccc2F)c2nc(N3CCNC3=O)ccc2c1=O [Example 644, N-[(1 S)-1-Cyclopropyl-2,2,2-trifluoroethyl]-1-(2,6-difluorophenyl)-4-oxo-7-(2-oxoimidazolidin-1-yl)-1,4-dihydro-1,8-naphthyridine-3-carboxamide] | 0.074 µM | 85% | 
10 | CN(C)c1ccc2c(=O)c(C(=O)NC(C)(C)c3c(F)cccc3F)cn(-c3ccc(F)cc3F)c2n1 [Example 53, 1-(2,4-Difluorophenyl)-N-[2-(2,6-difluorophenyl)propan-2-yl]-7-(dimethylamino)-4-oxo-1,4-dihydro-1,8-naphthyridine-3-carboxamide] |  |  | 0.058 µM
11 | CC(C)(CC(F)(F)F)NC(=O)c1cn(-c2c(F)cc(F)cc2F)c2nc(N3CCN(CCO)C3=O)ccc2c1=O [Example 375, 7-[3-(2-Hydroxyethyl)-2-oxoimidazolidin-1-yl]-4-oxo-N-(4,4,4-trifluoro-2-methylbutan-2-yl)-1-(2,4,6-trifluorophenyl)-1,4-dihydro-1,8-naphthyridine-3-carboxamide] |  |  | 0.04 µM
12 | O=C(NC(c1ccccc1Cl)C(F)(F)F)c1cn(-c2c(F)cc(F)cc2F)c2nc(N3C[C@@H](O)CC3=O)ccc2c1=O (mixture of isomers) [Example 532, N-[1-(2-Chlorophenyl)-2,2,2-trifluoroethyl]-7-[(4S)-4-hydroxy-2-oxopyrrolidin-1-yl]-4-oxo-1-(2,4,6-trifluorophenyl)-1,4-dihydro-1,8-naphthyridine-3-carboxamide] | 0.018 µM | 92% | 
13 | CC[C@@H](NC(=O)c1cn(-c2c(F)cccc2Cl)c2nc(N3CC[C@H](O)C3=O)ccc2c1=O)C(F)(F)F [Example 309, 1-(2-Chloro-6-fluorophenyl)-7-[(3S)-3-hydroxy-2-oxopyrrolidin-1-yl]-4-oxo-N-[(2R)-1,1,1-trifluorobutan-2-yl]-1,4-dihydro-1,8-naphthyridine-3-carboxamide] |  |  | 0.04 µM

Results, then the compound that gave them:

Row | EC50 [1] | Emax (M2-GIRK1/4 reporter cells) | EC50 [2] | SMILES
14 | 0.089 µM | 80% |  | CC[C@@H](NC(=O)c1cn(-c2c(Cl)cccc2Cl)c2nc(N3CC4CC4(O)C3)ccc2c1=O)C(F)(F)F (stereo partly drawn) [Example 652, 1-(2,6-Dichlorophenyl)-7-[1-hydroxy-3-azabicyclo[3.1.0]hex-3-yl]-4-oxo-N-[(2R)-1,1,1-trifluorobutan-2-yl]-1,4-dihydro-1,8-naphthyridine-3-carboxamide]
15 |  |  | 0.014 µM | C[C@@H]1C[C@](C)(O)CN1c1ccc2c(=O)c(C(=O)N[C@@H](C)C(F)(F)F)cn(-c3c(F)cc(F)cc3Cl)c2n1 [Example 390, 1-(2-Chloro-4,6-difluorophenyl)-7-[(2R,4S)-4-hydroxy-2,4-dimethylpyrrolidin-1-yl]-4-oxo-N-[(2S)-1,1,1-trifluoropropan-2-yl]-1,4-dihydro-1,8-naphthyridine-3-carboxamide]
16 |  |  | 0.094 µM | CC[C@@H](NC(=O)c1cn(-c2ccc(F)cc2F)c2nc(N3CC(O)C(C)(C)C3)ccc2c1=O)C(F)(F)F (stereo partly drawn) [Example 356, 1-(2,4-Difluorophenyl)-7-[4-hydroxy-3,3-dimethylpyrrolidin-1-yl]-4-oxo-N-[(2R)-1,1,1-trifluorobutan-2-yl]-1,4-dihydro-1,8-naphthyridine-3-carboxamide]
17 | 0.008 µM | 98% |  | CC(C)C[C@@H](NC(=O)c1cn(-c2c(F)cc(F)cc2F)c2nc(N3C[C@@H](O)[C@H](O)C3)ccc2c1=O)C(F)(F)F [Example 544, 7-[(3R,4R)-3,4-Dihydroxypyrrolidin-1-yl]-4-oxo-N-[(2R)-1,1,1-trifluoro-4-methylpentan-2-yl]-1-(2,4,6-trifluorophenyl)-1,4-dihydro-1,8-naphthyridine-3-carboxamide]
18 | 0.12 µM | 90% |  | O=C(N[C@@H](C1CC1)C(F)(F)F)c1cn(-c2c(F)cc(F)cc2Cl)c2nc(N3C[C@@H](O)[C@H](O)C3)ccc2c1=O (single isomer, unassigned) [Example 547]
19 | 0.01 µM | 91% |  | O=C(NC(CC(F)(F)F)C1CC1)c1cn(-c2c(F)cc(F)cc2F)c2nc(N3C[C@@H](O)CC3=O)ccc2c1=O (single isomer, unassigned) [Example 513]
20 | 0.06 µM | 83.5% |  | CC[C@H](NC(=O)c1cn(-c2c(F)cc(F)cc2F)c2nc(N3CC4(COC4)C3)ccc2c1=O)C(F)(F)F [Example 498]
21 | 0.015 µM | 100% |  | O=C(NC(CC(F)(F)F)C(F)(F)F)c1cn(-c2c(F)cc(F)cc2F)c2nc(N3CCNC3=O)ccc2c1=O (racemic) [Example 586, N-[1,1,1,4,4,4-Hexafluorobutan-2-yl]-4-oxo-7-(2-oxoimidazolidin-1-yl)-1-(2,4,6-trifluorophenyl)-1,4-dihydro-1,8-naphthyridine-3-carboxamide]
22 |  |  | 0.069 µM | CCCC(NC(=O)c1cn(-c2ccc(F)cc2F)c2nc(N3CCC(F)(F)C3)ccc2c1=O)C(F)(F)F (racemic) [Example 76, rac-1-(2,4-Difluorophenyl)-7-(3,3-difluoropyrrolidin-1-yl)-4-oxo-N-[1,1,1-trifluoropentan-2-yl]-1,4-dihydro-1,8-naphthyridine-3-carboxamide]
23 | 0.006 µM | 100% |  | CCC(NC(=O)c1cn(-c2c(F)cc(F)cc2F)c2nc(N3C[C@@H](O)CC3=O)ccc2c1=O)C(C)C (single isomer, unassigned) [Example 485]
24 | 0.046 µM | 91.5% |  | C[C@H](NC(=O)c1cn(-c2c(F)cc(F)cc2Cl)c2nc(N3CCNC3=O)ccc2c1=O)C(F)(F)F [Example 419, 1-(2-Chloro-4,6-difluorophenyl)-4-oxo-7-(2-oxoimidazolidin-1-yl)-N-[(2S)-1-1,1,1-trifluoropropan-2-yl]-1,4-dihydro-1,8-naphthyridine-3-carboxamide]
25 | 0.012 µM | 96.5% |  | CCC(NC(=O)c1cn(-c2c(F)cc(F)cc2F)c2nc(N3C[C@@H](O)[C@H](O)C3)ccc2c1=O)C(C)C (mixture of isomers) [Example 487, 7-[(3R,4R)-3,4-Dihydroxypyrrolidin-1-yl]-N-[2-methylpentan-3-yl]-4-oxo-1-(2,4,6-trifluorophenyl)-1,4-dihydro-1,8-naphthyridine-3-carboxamide]
26 | 0.14 µM | 80% |  | CC[C@H](NC(=O)c1cn(-c2c(F)cc(F)cc2Cl)c2nc(N3C[C@@H](O)[C@H](O)C3)ccc2c1=O)C(F)(F)F (single isomer, unassigned) [Example 567]
